Values of other authors in patent US20250228771A1, “ALKALINE INTRAORAL PRODUCTS” (priority 2022, published 2025).

Conditions: Tomar S. L. et al., Tobacco Control 1997

CN1CCCC1c1cccnc1 (stereo not shown) [nicotine]
lower pKa: about 3.2
